Reference: patent US9012655B2, “Antimicrobial/adjuvant compounds and methods” (Denouamed, Inc., priority 2011, dated 2015)
Values after ≈ are worked out from the molar mass of the structure shown.

Assays:
Experiment in all cases: MIC panel of challenge pathogens (CLSI)
Format in all cases: cell-based
[1] = tested on: Staphylococcus aureus AUR60 7005; conditions: AUR607005, Staphylococcus aureus AUR60 7005
Summary of the method: (§1)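 Broth microdilution per CLSI guidelines. Final inoculum 2-8×10^5 CFU/ml, compounds serially two-fold diluted from 128 mg/L top concentration. Incubated in the dark at 30-37° C for 24-48 h, aerobic or anaerobic as appropriate. MIC read visually as 100% inhibition endpoint; MIC50 and MIC80 also reported.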

[2] = tested on: Staphylococcus aureus NRS384; conditions: Staphylococcus aureus NRS384
Summary of the method: as §1

[3] = tested on: Staphylococcus aureus AUR59 7005; conditions: AUR597005, Staphylococcus aureus AUR59 7005
Summary of the method: as §1

[4] = tested on: Staphylococcus aureus ATCC43300; conditions: Staphylococcus aureus ATCC43300
Summary of the method: as §1

[5] = tested on: Staphylococcus epidermidis NRS7; conditions: Staphylococcus epidermidis NRS7
Summary of the method: as §1

[6] = tested on: Bacillus cereus NCTC6349; conditions: Bacillus cereus NCTC6349
Summary of the method: as §1

[7] = tested on: Staphylococcus aureus EUP SAU040; conditions: EUPSAU040, Staphylococcus aureus EUP SAU040
Summary of the method: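 Broth microdilution per CLSI guidelines; final inoculum 2-8×10^5 CFU/ml in the appropriate broth. Compounds serially diluted two-fold from a top assay concentration of 128 mg/L. Plates incubated in the dark at 30-37° C for 24-48 hours, read visually; MIC taken as 100% inhibition endpoint.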

[8] = tested on: Staphylococcus aureus AUR131 007035; conditions: AUR131007035, Staphylococcus aureus AUR131 007035
Summary of the method: as §1

[9] = tested on: Enterococcus faecalis ATCC29212; conditions: Enterococcus faecalis ATCC29212
Summary of the method: as §1

[10] = tested on: Enterococcus faecalis ATCC51299; conditions: Enterococcus faecalis ATCC51299
Summary of the method: as §1

[11] = tested on: Staphylococcus aureus NRS382; conditions: Staphylococcus aureus NRS382
Summary of the method: as §1

[12] = tested on: Staphylococcus aureus EUP MRSA002; conditions: EUPMRSA002, Staphylococcus aureus EUP MRSA002
Summary of the method: as §1

[13] = tested on: Enterococcus faecium ATCC700221; conditions: Enterococcus faecium ATCC700221
Summary of the method: as §1

[14] = tested on: Staphylococcus aureus NRS2 (ATCC700698); conditions: Staphylococcus aureus NRS2 (ATCC700698)
Summary of the method: as §1

[15] = tested on: Staphylococcus epidermidis NRS122; conditions: Staphylococcus epidermidis NRS122
Summary of the method: as §1

[16] = tested on: Staphylococcus aureus NRS383; conditions: Staphylococcus aureus NRS383
Summary of the method: as §1

[17] = tested on: Staphylococcus aureus AUR58 7005; conditions: AUR587005, Staphylococcus aureus AUR58 7005
Summary of the method: as §1

[18] = tested on: Staphylococcus aureus NRS1 (ATCC700699); conditions: Staphylococcus aureus NRS1 (ATCC700699)
Summary of the method: as §1

[19] = tested on: Staphylococcus aureus EUP MRSA004; conditions: EUPMRSA004, Staphylococcus aureus EUP MRSA004
Summary of the method: as §1

- MIC ([1]; read-out: 100% inhibition): 0.5 µg/mL (≈ 1.15 µM)
- MIC50 ([1]; read-out: MIC50 (50%)): 0.5 µg/mL (≈ 1.15 µM)
- MIC80 ([1]; read-out: MIC80 (80%)): 0.5 µg/mL (≈ 1.15 µM)
- MIC ([2]; read-out: 100% inhibition): 0.5 µg/mL (≈ 1.15 µM)
- MIC50 ([2]; read-out: MIC50 (50%)): 0.5 µg/mL (≈ 1.15 µM)
- MIC80 ([2]; read-out: MIC80 (80%)): 0.5 µg/mL (≈ 1.15 µM)
- MIC ([3]; read-out: 100% inhibition): 0.5 µg/mL (≈ 1.15 µM)
- MIC50 ([3]; read-out: MIC50 (50%)): 0.25 µg/mL (≈ 0.577 µM)
- MIC80 ([3]; read-out: MIC80 (80%)): 0.25 µg/mL (≈ 0.577 µM)
- MIC ([4]; read-out: 100% inhibition): ≤ 0.25 µg/mL
- MIC50 ([4]; read-out: MIC50 (50%)): ≤ 0.25 µg/mL
- MIC80 ([4]; read-out: MIC80 (80%)): ≤ 0.25 µg/mL
- MIC ([5]; read-out: 100% inhibition): 1 µg/mL (≈ 2.31 µM)
- MIC50 ([5]; read-out: MIC50 (50%)): 1 µg/mL (≈ 2.31 µM)
- MIC80 ([5]; read-out: MIC80 (80%)): 1 µg/mL (≈ 2.31 µM)
- MIC ([6]; read-out: 100% inhibition): ≤ 0.25 µg/mL
- MIC50 ([6]; read-out: MIC50 (50%)): ≤ 0.25 µg/mL
- MIC80 ([6]; read-out: MIC80 (80%)): ≤ 0.25 µg/mL
- MIC ([7]; read-out: 100% inhibition): 0.5 µg/mL (≈ 1.15 µM)
- MIC50 ([7]; read-out: MIC50 (50%)): 0.5 µg/mL (≈ 1.15 µM)
- MIC80 ([7]; read-out: MIC80 (80%)): 0.5 µg/mL (≈ 1.15 µM)
- MIC ([8]; read-out: 100% inhibition): ≤ 0.25 µg/mL
- MIC50 ([8]; read-out: MIC50 (50%)): ≤ 0.25 µg/mL
- MIC80 ([8]; read-out: MIC80 (80%)): ≤ 0.25 µg/mL
- MIC ([9]; read-out: 100% inhibition): 0.5 µg/mL (≈ 1.15 µM)
- MIC50 ([9]; read-out: MIC50 (50%)): 0.5 µg/mL (≈ 1.15 µM)
- MIC80 ([9]; read-out: MIC80 (80%)): 0.5 µg/mL (≈ 1.15 µM)
- MIC ([10]; read-out: 100% inhibition): 0.5 µg/mL (≈ 1.15 µM)
- MIC50 ([10]; read-out: MIC50 (50%)): 0.5 µg/mL (≈ 1.15 µM)
- MIC80 ([10]; read-out: MIC80 (80%)): 0.5 µg/mL (≈ 1.15 µM)
- MIC ([11]; read-out: 100% inhibition): 0.5 µg/mL (≈ 1.15 µM)
- MIC50 ([11]; read-out: MIC50 (50%)): 0.5 µg/mL (≈ 1.15 µM)
- MIC80 ([11]; read-out: MIC80 (80%)): 0.5 µg/mL (≈ 1.15 µM)
- MIC ([12]; read-out: 100% inhibition): ≤ 0.25 µg/mL
- MIC50 ([12]; read-out: MIC50 (50%)): ≤ 0.25 µg/mL
- MIC80 ([12]; read-out: MIC80 (80%)): ≤ 0.25 µg/mL
- MIC ([13]; read-out: 100% inhibition): 0.5 µg/mL (≈ 1.15 µM)
- MIC50 ([13]; read-out: MIC50 (50%)): 0.25 µg/mL (≈ 0.577 µM)
- MIC80 ([13]; read-out: MIC80 (80%)): 0.25 µg/mL (≈ 0.577 µM)
- MIC ([14]; read-out: 100% inhibition): 0.5 µg/mL (≈ 1.15 µM)
- MIC50 ([14]; read-out: MIC50 (50%)): 0.25 µg/mL (≈ 0.577 µM)
- MIC80 ([14]; read-out: MIC80 (80%)): 0.5 µg/mL (≈ 1.15 µM)
- MIC ([15]; read-out: 100% inhibition): 2 µg/mL (≈ 4.61 µM)
- MIC50 ([15]; read-out: MIC50 (50%)): 1 µg/mL (≈ 2.31 µM)
- MIC80 ([15]; read-out: MIC80 (80%)): 2 µg/mL (≈ 4.61 µM)
- MIC ([16]; read-out: 100% inhibition): ≤ 0.25 µg/mL
- MIC50 ([16]; read-out: MIC50 (50%)): ≤ 0.25 µg/mL
- MIC80 ([16]; read-out: MIC80 (80%)): ≤ 0.25 µg/mL
- MIC ([17]; read-out: 100% inhibition): 1 µg/mL (≈ 2.31 µM)
- MIC50 ([17]; read-out: MIC50 (50%)): 1 µg/mL (≈ 2.31 µM)
- MIC80 ([17]; read-out: MIC80 (80%)): 1 µg/mL (≈ 2.31 µM)
- MIC ([18]; read-out: 100% inhibition): ≤ 0.25 µg/mL
- MIC50 ([18]; read-out: MIC50 (50%)): ≤ 0.25 µg/mL
- MIC80 ([18]; read-out: MIC80 (80%)): ≤ 0.25 µg/mL
- MIC ([19]; read-out: 100% inhibition): ≤ 0.25 µg/mL
- MIC50 ([19]; read-out: MIC50 (50%)): ≤ 0.25 µg/mL
- MIC80 ([19]; read-out: MIC80 (80%)): ≤ 0.25 µg/mL
Compound: CC(C)c1cc(Cl)ccc1-c1cc(C(=O)O)sc1-c1ccc(Cl)cc1C(C)C [DNM0566, 4,5-Bis(4-chloro-2-isopropylphenyl)thiophene-2-carboxylic acid]
